Data from PubChem BioAssay AID248 (DTP/NCI, 2004).
“And” between values parts separate entries of the source, which are not always exact repeats. Equal entries are not always repeated. Toxic doses and inconclusive results are not listed. No stated cut-off is given here; in the data, active means T/C of 150% or more; inactive means T/C below 125%.

Test system: L1210 leukemia ip in BDF1 mice, survival T/C
Experiment: NCI In Vivo Anticancer Drug Screen. Data for tumor model L1210 Leukemia (intraperitoneal) in B6D2F1 (BDF1) mice
Conditions: endpoint: mean survival time, higher = longer survival
In short: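 Value reflects the ratio of survival in compound-treated mice to survival in vehicle-treated controls, with both groups carrying the same transplanted tumor.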

[1] = dose: 100.0 mg/kg/injection, schedule: Q04DX002 (ip), vehicle: Klucel (hydroxypropylcellulose) (HPC)
[2] = dose: 200.0 mg/kg/injection, schedule: Q04DX002 (ip), vehicle: Klucel (hydroxypropylcellulose) (HPC)
[3] = dose: 400.0 mg/kg/injection, schedule: Q04DX002 (ip), vehicle: Klucel (hydroxypropylcellulose) (HPC)
[4] = dose: 100.0 mg/kg/injection, schedule: Q04DX003 (ip), vehicle: saline with Tween-80
[5] = dose: 200.0 mg/kg/injection, schedule: Q04DX003 (ip), vehicle: saline with Tween-80
[6] = dose: 400.0 mg/kg/injection, schedule: Q04DX003 (ip), vehicle: saline with Tween-80
[7] = dose: 100.0 mg/kg/injection, schedule: Q04DX003 (ip), vehicle: saline
[8] = dose: 200.0 mg/kg/injection, schedule: Q04DX003 (ip), vehicle: saline
[9] = dose: 400.0 mg/kg/injection, schedule: Q04DX003 (ip), vehicle: saline
[10] = dose: 100.0 mg/kg/injection, schedule: Q01DX009 (ip), vehicle: saline with Tween-80
[11] = dose: 200.0 mg/kg/injection, schedule: Q01DX009 (ip), vehicle: saline with Tween-80
[12] = dose: 400.0 mg/kg/injection, schedule: Q01DX009 (ip), vehicle: saline with Tween-80
[13] = dose: 100.0 mg/kg/injection, schedule: Q04DX003 (ip), vehicle: Klucel (hydroxypropylcellulose) (HPC)
[14] = dose: 200.0 mg/kg/injection, schedule: Q04DX003 (ip), vehicle: Klucel (hydroxypropylcellulose) (HPC)
[15] = dose: 400.0 mg/kg/injection, schedule: Q04DX003 (ip), vehicle: Klucel (hydroxypropylcellulose) (HPC)
[16] = dose: 50.0 mg/kg/injection, schedule: Q01DX001 (ip), vehicle: carboxymethylcellulose (CMC)
[17] = dose: 100.0 mg/kg/injection, schedule: Q01DX001 (ip), vehicle: carboxymethylcellulose (CMC)
[18] = dose: 200.0 mg/kg/injection, schedule: Q01DX001 (ip), vehicle: carboxymethylcellulose (CMC)
[19] = dose: 400.0 mg/kg/injection, schedule: Q01DX001 (ip), vehicle: carboxymethylcellulose (CMC)
[20] = dose: 100.0 mg/kg/injection, schedule: Q01DX009 (ip), vehicle: Klucel (hydroxypropylcellulose) (HPC)
[21] = dose: 200.0 mg/kg/injection, schedule: Q01DX009 (ip), vehicle: Klucel (hydroxypropylcellulose) (HPC)
[22] = dose: 400.0 mg/kg/injection, schedule: Q01DX009 (ip), vehicle: Klucel (hydroxypropylcellulose) (HPC)
[23] = dose: 100.0 mg/kg/injection, schedule: Q04DX002 (ip), vehicle: saline
[24] = dose: 200.0 mg/kg/injection, schedule: Q04DX002 (ip), vehicle: saline
[25] = dose: 400.0 mg/kg/injection, schedule: Q04DX002 (ip), vehicle: saline

Measured: T/C

Nc1ccc(C(=O)N/N=C/C=C/c2ccccc2)cc1
inactive: [1] 105 % of control | [2] 96 % of control | [3] 99 % of control

c1nc(SCSc2ncnc3nc[nH]c23)c2[nH]cnc2n1
inactive: [4] 97 % of control | [5] 90 % of control | [6] 90 % of control

CCOC(=O)CCc1ccc2c(c1)OCO2
inactive: [7] 103 % of control | [8] 101 % of control | [9] 95 % of control

CC(C)(Cc1ccccc1)C(C(=O)O)C(=O)O
inactive: dose: 100.0 mg/kg/injection, schedule: Q01DX001 (ip), vehicle: gum acacia 91 % of control | dose: 200.0 mg/kg/injection, schedule: Q01DX001 (ip), vehicle: gum acacia 95 % of control

CC(C)N(C(=O)c1ccc(C(=O)N(c2ccccc2)C(C)C)cc1)c1ccccc1
inactive: [10] 92 % of control | [4] 100 % of control | [11] 90 % of control | [5] 94 % of control | [12] 86 % of control | [6] 87 % of control

O=[N+]([O-])c1ccc(N=Cc2ccccc2)cc1
inactive: [13] 91 % of control | [14] 96 % of control | [15] 98 % of control

Nc1ccc2ccccc2c1S(=O)(=O)O
inactive: [4] 98 % of control | [5] 95 % of control | [6] 98 % of control

CC(=O)Nc1ccc(S(=O)(=O)NN)cc1
inactive: [16] 106 % of control | [17] 103 % of control | [18] 92 % of control | [19] 92 % of control

CCOC(=O)c1[nH]c2ccsc2c1C[N+]1(C)CCCCC1
inactive: dose: 12.5 mg/kg/injection, schedule: Q01DX001 (ip), vehicle: saline with Tween-80 105 % of control | dose: 25.0 mg/kg/injection, schedule: Q01DX001 (ip), vehicle: saline with Tween-80 103 % of control

C=CCCCCCCCCC(=O)NC/C(Br)=C/Br
inactive: dose: 75.0 mg/kg/injection, schedule: Q01DX009 (ip), vehicle: Klucel (hydroxypropylcellulose) (HPC) 103 % of control | dose: 150.0 mg/kg/injection, schedule: Q01DX009 (ip), vehicle: Klucel (hydroxypropylcellulose) (HPC) 108 % of control | dose: 300.0 mg/kg/injection, schedule: Q01DX009 (ip), vehicle: Klucel (hydroxypropylcellulose) (HPC) 93 % of control

COc1ccc(NC(=O)NCc2ccccc2Cl)c(OC)c1
inactive: [20] 102 % of control | [21] 96 % of control | [22] 98 % of control

CN(C)C(=O)Nc1nc2ccccc2s1
inactive: dose: 100.0 mg/kg/injection, schedule: Q04DX002 (ip), vehicle: other 88 % of control and 92 % of control | dose: 100.0 mg/kg/injection, schedule: Q04DX003 (ip), vehicle: other 96 % of control and 120 % of control | dose: 200.0 mg/kg/injection, schedule: Q04DX002 (ip), vehicle: other 97 % of control and 100 % of control | dose: 200.0 mg/kg/injection, schedule: Q04DX003 (ip), vehicle: other 99 % of control and 105 % of control | dose: 400.0 mg/kg/injection, schedule: Q04DX002 (ip), vehicle: other 95 % of control and 103 % of control

CCc1c(CO)cnc(C)c1OP(=O)(O)O
inactive: [17] 100 % of control | [18] 96 % of control | [19] 102 % of control

CC(=Nc1ccc(Br)cc1)c1c(O)cc(C)oc1=O
inactive: [20] 100 % of control | [21] 91 % of control | [22] 117 % of control

CC1CCCCC1C(=O)N1CCCCCC1 (configuration not stated)
inactive: [23] 108 % of control | [24] 99 % of control | [25] 108 % of control

COC(=O)CC1CCS(=O)(=O)C1 (configuration not stated)
inactive: [10] 101 % of control | [11] 103 % of control | [12] 95 % of control

CCCCCC(C)NCCOC(=O)c1ccc([N+](=O)[O-])cc1 (configuration not stated)
inactive: dose: 75.0 mg/kg/injection, schedule: Q01DX001 (ip), vehicle: other 103 % of control | dose: 150.0 mg/kg/injection, schedule: Q01DX001 (ip), vehicle: other 103 % of control | dose: 300.0 mg/kg/injection, schedule: Q01DX001 (ip), vehicle: other 106 % of control

CC(C)C(O)c1c[nH]c(=O)[nH]c1=O (configuration not stated)
inactive: [20] 91 % of control | [21] 105 % of control | [22] 96 % of control

Oc1c(Br)cc(-c2ccccc2)cc1Br
inactive: dose: 100.0 mg/kg/injection, schedule: Q04DX002 (ip), vehicle: gum acacia 95 % of control | dose: 200.0 mg/kg/injection, schedule: Q04DX002 (ip), vehicle: gum acacia 95 % of control | dose: 400.0 mg/kg/injection, schedule: Q04DX002 (ip), vehicle: gum acacia 103 % of control

CN(C)C1CS(=O)(=O)CC1[N+](C)(C)C (configuration not stated)
inactive: [23] 118 % of control | [24] 89 % of control | [25] 110 % of control

O=C(C1C2C=CC(CC2)C1C(=O)N1CCOCC1)N1CCOCC1 (configuration not stated)
inactive: [7] 100 % of control | [8] 96 % of control | [9] 96 % of control

CC1(CCBr)NC(=O)NC1=O (configuration not stated)
inactive: [20] 121 % of control | [13] 98 % of control | [21] 101 % of control | [14] 119 % of control | [22] 95 % of control | [15] 107 % of control

Brc1ccc([Si](c2ccccc2)(c2ccccc2)c2ccc(Br)cc2)cc1
inactive: [10] 101 % of control | [11] 93 % of control | [12] 89 % of control

O=[N+]([O-])c1cc2c3ccccc3ccc2c2ccccc12
inactive: [20] 96 % of control | [13] 95 % of control | [21] 94 % of control | [14] 97 % of control | [22] 100 % of control | [15] 94 % of control

CCOC(=O)/C(C(=O)c1ccccc1)=C(\OC(=O)c1ccccc1)c1ccccc1
inactive: [16] 96 % of control | [17] 102 % of control | [18] 91 % of control

O=C(OC(=O)c1ccc([N+](=O)[O-])cc1)c1ccc([N+](=O)[O-])cc1
inactive: dose: 100.0 mg/kg/injection, schedule: Q01DX009 (sc), vehicle: olive oil, sesame oil, peanut oil 104 % of control | dose: 100.0 mg/kg/injection, schedule: Q04DX003 (sc), vehicle: olive oil, sesame oil, peanut oil 98 % of control | dose: 200.0 mg/kg/injection, schedule: Q01DX009 (sc), vehicle: olive oil, sesame oil, peanut oil 106 % of control | dose: 200.0 mg/kg/injection, schedule: Q04DX003 (sc), vehicle: olive oil, sesame oil, peanut oil 98 % of control | dose: 400.0 mg/kg/injection, schedule: Q01DX009 (sc), vehicle: olive oil, sesame oil, peanut oil 118 % of control | dose: 400.0 mg/kg/injection, schedule: Q04DX003 (sc), vehicle: olive oil, sesame oil, peanut oil 101 % of control

Cn1cnc([N+](=O)[O-])c1[Se]c1ncnc2nc[nH]c12
inactive: dose: 12.5 mg/kg/injection, schedule: Q01DX005 (ip), vehicle: other 89 % of control | dose: 50.0 mg/kg/injection, schedule: Q01DX005 (ip), vehicle: other 87 % of control

CCOC(=O)Nc1ccc(Cl)cc1
inactive: [1] 89 % of control | [2] 108 % of control | [3] 108 % of control

C=CCN(Cc1cnc2nc(N)nc(N)c2n1)c1ccc(C(=O)NC(CCC(=O)O)C(=O)O)cc1 (configuration not stated)
inactive: dose: 1.5 mg/kg/injection, schedule: Q01DX009 (ip), vehicle: sodium bicarbonate 108 % of control | dose: 3.0 mg/kg/injection, schedule: Q01DX009 (ip), vehicle: sodium bicarbonate 116 % of control | dose: 6.0 mg/kg/injection, schedule: Q01DX009 (ip), vehicle: sodium bicarbonate 118 % of control

COC(=O)c1ccccc1N1C(=O)C=CC1=O
inactive: dose: 6.25 mg/kg/injection, schedule: Q01DX009 (ip), vehicle: saline with Tween-80 97 % of control | dose: 12.5 mg/kg/injection, schedule: Q01DX009 (ip), vehicle: saline with Tween-80 98 % of control | dose: 25.0 mg/kg/injection, schedule: Q01DX009 (ip), vehicle: saline with Tween-80 103 % of control
